The values below come from the METLIN SMRT retention time set (Domingo-Almenara et al. 2019).

The series in a line: gradient 5% acetonitrile 3 min, to 50% in 2 min, to 85% in 15 min, held 3 min, 100 µL/min. Conditions: column: Zorbax Extend-C18 2.1 x 50 mm; eluents: water / acetonitrile, 0.1% formic acid. The gist of the method:
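Values are retention times taken from adduct peaks that software picked and an analyst inspected. The pure standards were run as mixtures of ~100 molecules on HPLC linked to a quadrupole time-of-flight mass spectrometer, in positive and negative ionization mode. A Zorbax Extend-C18 column (2.1 × 50 mm, 1.8 μm) was used at 100 μL/min with water and acetonitrile, each including 0.1% formic acid.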
The compound `Cn1ccc2ccn(CC(=O)NCc3ccccc3Br)c(=O)c21` gave an RP-LC retention time of 778 s.

With `O=C(Cc1cn2cc(F)ccc2n1)Nc1ccc(F)cc1`, the RP-LC retention time worked out at 594 s.

As to `Cc1cc(N2CCN(C(=O)Nc3ccccc3F)CC2)nc(N2CCCC2)n1`, the RP-LC retention time stood at 626 s.

As to `Cc1cccc(Nc2nc(-c3ccc(F)c(C)c3)cs2)n1`, the RP-LC retention time was 992 s.

`CC(=O)Nc1ccc(NC(=O)C2CC(=O)N(c3n[nH]c4cccc(F)c34)C2)cc1` (stereo not given) showed an RP-LC retention time of 634 s.

With `COc1ccc(N2CCOCC2)c2sc(NC(=O)N3CCC(C)(O)CC3)nc12`, the RP-LC retention time worked out at 732 s.

`Cc1nn(C)c(=O)c2cc(S(=O)(=O)NC(C)c3ccccc3)cn12` (stereo not given) registered an RP-LC retention time of 801 s.

As for `Cc1ccc(S(=O)(=O)CC(=O)Nc2nc(-c3ccc(F)cc3)cs2)cc1`, the RP-LC retention time was 988 s.

Consider `CSc1ccc(-c2nc3cnccn3c2Nc2cccc(C(=O)N3CCCCC3)c2)cc1`, for which the RP-LC retention time came out at 807 s.

For the compound `CC(C)CC(=O)Nc1ccc(-n2cnc(C(=O)N3CCCC(C)C3)c2)nc1` (stereo not given), the RP-LC retention time stood at 756 s.

Regarding `CCS(=O)(=O)c1ccc2c(c1)N(Cc1nc(-c3ccc(C)c(C)c3)no1)C(=O)CO2`, the RP-LC retention time was found to be 1000 s.

`Cc1nc([N+](=O)[O-])cn1-c1nc2ccccn2c1[N+](=O)[O-]` returned an RP-LC retention time of 753 s.

For `O=C(COc1ccccc1)Nc1cnc(N2CCCCC2)nc1`, the RP-LC retention time worked out at 919 s.

Regarding `CC(=O)N1C[C@@H]2CCCN3CCC[C@@H]([C@H]23)[C@H]1CCCC(=O)NCC1CC1`, the RP-LC retention time is 562 s.

As for `Cc1ccc(Cn2cc(C(=O)O)c(S(=O)(=O)N3CCSCC3)n2)cc1`, the RP-LC retention time stood at 861 s.

`CSc1cccc(NC(=O)Cn2c(=O)cc(-c3nc(C4CC4)no3)c3ccccc32)c1` displayed an RP-LC retention time of 686 s.

The compound `Cc1ccc(CNC(=O)CNS(=O)(=O)c2cc(-c3noc(C)n3)sc2C)cc1` gave an RP-LC retention time of 847 s.

`COCCc1noc(C2Cc3ccccc3N2C(=O)NCc2ccc(OC)cc2)n1` (stereo not given): the RP-LC retention time worked out at 904 s.

Compound `Cc1cc(=O)n(CC(=O)Nc2cc(F)ccc2F)c(N2CCOCC2)n1` yielded an RP-LC retention time of 698 s.

`CCC(=O)Nc1ccc2c(c1)CCC(=O)N2CCOC` had an RP-LC retention time of 618 s.

`COc1cccc(Cn2ccc3ccn(CCN(C)C)c3c2=O)c1` returned an RP-LC retention time of 639 s.

With `Cc1ccccc1NS(=O)(=O)c1cn(CC(C)C)c2ncccc12`, the RP-LC retention time was 976 s.

Regarding `CCn1ccc2sc(C)c(C(=O)O)c2c1=O`, the RP-LC retention time is 702 s.

In the case of `Cc1cc(C)c(C)c(S(=O)(=O)NCC(=O)NCC2CCCO2)c1C` (stereo not given), the RP-LC retention time stood at 724 s.

For `O=C(NCCCN1CCc2ccccc2C1)C1CCCN(S(=O)(=O)N2CCCCCC2)C1` (stereo not given), the RP-LC retention time was 682 s.

In turn, `O=C1N=C(N2CCOCC2)S/C1=C/c1ccc(-c2ccccc2Br)o1` showed an RP-LC retention time of 872 s.

In turn, `CCOc1ccc(NC(=O)Cn2c(N)nc(C)cc2=O)cc1` gave an RP-LC retention time of 574 s.

`CCS(=O)(=O)N1CCCc2cc(C(=O)NCc3ccc4c(c3)OCO4)ccc21` yielded an RP-LC retention time of 832 s.

`Cc1ccc(NC(=O)N2CCN(CCn3cnc4cccnc43)CC2)c(Cl)c1` displayed an RP-LC retention time of 584 s.

In turn, `COC(=O)c1ccccc1NC(=O)CSc1cc(C)nc(-c2cccnc2)n1` registered an RP-LC retention time of 734 s.

`Cc1nn(-c2nc(-c3ccc(Cl)cc3)cs2)c(C)c1CC(=O)N1CCCCC1C` (stereo not given) registered an RP-LC retention time of 1310 s.

As to `CCNC(=O)C1CCCN(c2nc3ncn(CC(=O)NCc4ccc(Cl)cc4)c(=O)c3s2)C1` (stereo not given), the RP-LC retention time was determined as 696 s.

As for `CCn1c(=O)n(CC)c2cc(N3CCCC3)c(NC(=O)NCc3cccc(F)c3)cc21`, the RP-LC retention time was determined as 654 s.

`COc1ccc(-c2csc3c(=O)n(Cc4cccc(F)c4)cnc23)cc1` registered an RP-LC retention time of 1050 s.

With `Cn1c(N2CCN(C(=O)Cc3ccccc3Cl)CC2)cc(=O)n(C)c1=O`, the RP-LC retention time was found to be 732 s.

On to `CCCNC(=O)NC1CCN(C2=NS(=O)(=O)C(c3ccc(CC)cc3)=C2C)CC1`, for which the RP-LC retention time is 787 s.

The compound `CCCN(C)c1nccnc1OC1CCN(C(=O)C2CCC2)C1` (stereo not given) showed an RP-LC retention time of 765 s.

The compound `COC(=O)c1cc(OCC(=O)NCc2ccc3c(c2)OCO3)c2cc(F)ccc2n1` displayed an RP-LC retention time of 785 s.

Take `CCC(CC)CN1CCC(n2c(C)cnc2-c2cccnc2)C1` (stereo not given): the RP-LC retention time worked out at 545 s.

`COC(=O)C1=CN(c2ccccc2C)c2ccccc2S1(=O)=O` gave an RP-LC retention time of 848 s.

`CN(CCc1noc(-c2ccccc2)n1)C(=O)NCCc1ccccc1` yielded an RP-LC retention time of 896 s.

`CCN1CCN(C(=O)c2c(C)sc3ccn(CC(C)C)c(=O)c23)CC1` came in with an RP-LC retention time of 598 s.

`Cc1ccc(S(=O)(=O)N2CCC(C)(C(=O)NCc3ccccc3C)CC2)c(C)c1` returned an RP-LC retention time of 1040 s.

Consider `COc1cccc(CNC(=O)C2CCN(S(=O)(=O)c3ccc4c(c3)NC(=O)C(C)O4)CC2)c1` (stereo not given), for which the RP-LC retention time is 757 s.

Turning to `O=C(CCc1c[nH]c2ccccc12)N1CCn2cnnc2C1`, the RP-LC retention time was 778 s.

`O=C(C1COc2ccccc2O1)N1CCCn2nc(-c3cccs3)cc2C1` (stereo not given) yielded an RP-LC retention time of 934 s.

The compound `CCOC(=O)COc1cc(-c2ccccc2)nc2ccc(NC(=O)C3CCC3)cc12` registered an RP-LC retention time of 780 s.

Compound `CCn1c(N2CCC(C(=O)NCc3ccc4c(c3)OCO4)CC2)cc(=O)n(C)c1=O` returned an RP-LC retention time of 740 s.

In turn, `CCOc1ccc(NC(=O)CN2C(=O)C3CCCCN3c3ccc(S(=O)(=O)N(C)C)cc32)cc1` (stereo not given) displayed an RP-LC retention time of 945 s.

`Cc1ccc(NC(=O)Nc2ccccc2)c(=O)n1CC(=O)N1CCCC1` gave an RP-LC retention time of 767 s.

As to `CCc1nc(-c2ccc(S(=O)(=O)N3CCC(C(=O)Nc4ccc5c(c4)OCCO5)CC3)cc2)no1`, the RP-LC retention time was 929 s.

Compound `CCOC(=O)CC1=CC(SCC(=O)N(C)c2ccccc2)=Nc2ccccc2N1` registered an RP-LC retention time of 1100 s.

In turn, `Cc1cc(-c2nnc(NC(=O)c3cc(Cl)sc3Cl)o2)n(C)n1` gave an RP-LC retention time of 772 s.

`CCn1nc(C)n2cc(S(=O)(=O)NCc3cccc(C)c3)cc2c1=O`: the RP-LC retention time was 882 s.

In turn, `Cc1cnc(CCC2CCCN2C(=O)c2ccc(Cn3cncn3)o2)n1C(C)C` (stereo not given) gave an RP-LC retention time of 626 s.

`CCN1C(=O)CCc2cc(NC(=O)c3ccnn3C)ccc21`: the RP-LC retention time worked out at 677 s.

Regarding `O=C(NCc1ccc2c(c1)OCO2)C1CCN(C(=O)c2ccccc2F)CC1`, the RP-LC retention time is 719 s.

For `COc1cc(OC)cc(C(=O)NCC(=O)Nc2nc3ccccc3[nH]2)c1`, the RP-LC retention time worked out at 635 s.

`Cc1cccc(NS(=O)(=O)c2c(C)sc(C)c2-c2cc(C(F)(F)F)on2)c1` showed an RP-LC retention time of 1180 s.

Take `CCc1cccc(NC(=O)Cn2nc3cc(C)nc(Nc4ccc(C)cc4)n3c2=O)c1`: the RP-LC retention time was 1140 s.
